We go through five molecules from US9562065B2, “Sucrose octasulfates of magnesium, preparation method thereof and pharmaceutical cosmetic uses of same” (PIERRE FABRE DERMO-COSMETIQUE, priority 2011, dated 2017).

Marks after values point to notes of the source that are not given here.

Format in all cases: cell-based
The test system of test [1] is HaCaT human keratinocytes cell line. The experiment in a line: Oris Cell Migration Assay, keratinocyte migration. Particulars: for AVG IF (Intensity of Fluorescence, proportional to the quantity of cells having migrated) / % activity/control: 24 hours; for AVG IF (Intensity of Fluorescence, proportional to the quantity of cells having migrated): DMEM 0% FCS; for % activity/control: in relation to the 0% FCS control. How it is done:
In order to evaluate the impact of sucrose octasulfate of magnesium on the cell migration of HaCaT keratinocyte cell lines, studies were carried out using the Oris Cell Migration Assay Kit (Platypus Technologies). This study was conducted in parallel with sucrose octasulfate of potassium and sucrose octasulfate of sodium for comparison.
The keratinocyte cell line used is the HaCaT human keratinocytes cell line, spontaneously immortalized. This line is frequently cited as a reference model in the literature.
The protocol used for the cell migration study is based on the use of a 96-well kit, Oris Cell Migration Assay (Platypus Technologies—TEBU), enabling the miniaturization and quantification of this cell process.
The principle of this test consists in studying cell migration toward the center of the well of the 96-well plate. It consists in placing a stopper in the wells, in order to create a detection zone 2 mm in diameter. Then the stoppers are removed once the cells are well adhered to the surrounding surface, thus allowing the cells to migrate toward the detection zone. Plates without stoppers and with active agents are incubated at 37° C. for 24 hours in DMEM 0% FCS. The quantity of cells located in the zone previously occupied by the stopper is then analyzed in order to evaluate cell migration. A mask is used to visualize and count only the cells located in this zone. For each condition, an average of 4 to 8 wells is prepared.
The products tested in this study are SOS-Mg obtained in example 1 at a concentration of 10 μM, SOS-K at 10 μM (sucrose octasulfate of potassium), SOS-Na at 10 μM (sucrose octasulfate of sodium) and EGF as positive control. A negative control is prepared in which no compound is added to the culture medium (control 0% FCS).
The results are quantified by means of the following formula:
[formula] • in IF (Intensity of Fluorescence, proportional to the quantity of cells having migrated). • in percentage of activity in relation to the 0% FCS control.

Test [2] concerns UGCG. The experiment in a line: mRNA expression in normal human keratinocytes (Quantigene), UGCG. More on the design: dose or concentration left out as unconfirmed. Particulars: CaCl2, positive control, 72 hours, NHK, in relation to the negative control. The protocol: (§1) The effect of sucrose octasulfate of magnesium and sucrose octasulfate of potassium and sodium on regulation of molecular targets involved in keratinocyte differentiation processes was evaluated. To that end, normal human keratinocytes (NHK) were brought together with the various products to be tested and the expression of various RNA coding proteins involved in the establishment of protein structures of the cornified envelope, but also in the synthesis of lipids or the expression of antimicrobial peptides, was measured.
(§2) The keratinocyte cell line used is the primary human keratinocyte cell line or NHKs prepared from strips of skin from cosmetic surgery waste (breast reduction). […]
(§3) The products to be tested are incubated with keratinocytes for 72 hours. The cells are then recovered and an analysis of the expression of target genes involved in epidermal differentiation is carried out using Quantigene technology, used to quantify the expression of mRNA of interest.
(§4) The values obtained by Quantigene are normalized in relation to the geometric mean of 2 reference genes, POL2RA and HPRT. Relative quantity is calculated in relation to the control. Regulation of the expression of the gene of interest is taken into account from a RQ (relative quantity)≧1.9 (induction) or RQ[…] (inhibition). […]

The subject of test [3] is DEFB103A. The experiment in a line: mRNA expression in normal human keratinocytes (Quantigene), DEFB103A. More on the design: dose or concentration left out as unconfirmed. Particulars: CaCl2, positive control, 72 hours, NHK, in relation to the negative control. The protocol:
as §1, §2, §3, §4

Test [4] concerns RNASE7. Kind of test: mRNA expression in normal human keratinocytes (Quantigene), RNASE7. Also on record: dose or concentration left out as unconfirmed. Particulars: CaCl2, positive control, 72 hours, NHK, in relation to the negative control. The protocol: as §1, §2, §3, §4
The subject of test [5] is CDSN. Kind of test: mRNA expression in normal human keratinocytes (Quantigene), CDSN. Also on record: dose or concentration left out as unconfirmed. Particulars: positive control, 72 hours, NHK, in relation to the negative control. The protocol:
as §1, §2, §3, §4

Test [6] deals with IVL. The experiment in a line: mRNA expression in normal human keratinocytes (real-time PCR), IVL. Particulars: 30 μM, 72 hours, NHK. The protocol:
(§5) The keratinocyte cell line used is the primary human keratinocyte cell line or NHKs prepared from strips of skin from cosmetic surgery waste (breast reduction). The cells are grown in low-magnesium (0.1 mM) KSFM (Invitrogen) supplemented with 25 μg/ml bovine pituitary extract (BPE) and 1.5 ng/ml […] (EGF).
as §3
(§6) A second study was carried out under the same conditions but by measuring the expression of a larger number of genes (64 targets involved in cell differentiation) by real-time PCR.
(§7) These inductions show the role of SOS-Mg in the induction of keratinocyte differentiation and thus of cicatrization (IVL, SPRR1A, SPRR1B and LOR), in moisturization (Padi1) as well as its antimicrobial properties (hBD2).
On the technique in general: Quantitative PCR measures a nucleic acid by following its amplification.

The subject of test [7] is FLG. The experiment in a line: mRNA expression in normal human keratinocytes (real-time PCR), FLG. Particulars: 30 μM, 72 hours, NHK. How it is done:
as §5, §3, §6, §7

Test [8] deals with LOR. Kind of test: mRNA expression in normal human keratinocytes (real-time PCR), loricrin. Particulars: 30 μM, 72 hours, NHK, FIG. 1. The protocol:
FIG. 1 represents the relative quantity of loricrin mRNA produced by keratinocytes treated for 72 hours with 30 μM sucrose octasulfate of magnesium (SOS-Mg), 30 μM sucrose octasulfate of sodium (SOS-Na) or 30 μM sucrose octasulfate of magnesium (SOS-Mg) in relation to the negative control.
as §5, §3, §6
(§8) These inductions show the role of SOS-Mg in the induction of keratinocyte differentiation and thus of cicatrization (IVL, SPRR1A, SPRR1B and LOR), in moisturization (Padi1) as well as its antimicrobial properties (hBD2). […]

Test [9] relates to hBD2 (DEFB4). Kind of test: mRNA expression in normal human keratinocytes (real-time PCR), hBD2. Particulars: 30 μM, 72 hours, NHK, FIG. 3. The protocol: FIG. 3 represents the relative quantity of hBD2 mRNA produced by keratinocytes treated for 72 hours with 30 μM sucrose octasulfate of magnesium (SOS-Mg), 30 μM sucrose octasulfate of sodium (SOS-Na) or 30 μM sucrose octasulfate of magnesium (SOS-Mg) in relation to the negative control.
as §5, §3, §6, §8

Test [10] relates to SPRR1B. The experiment in a line: mRNA expression in normal human keratinocytes (real-time PCR), SPRR1B. Particulars: 30 μM, 72 hours, NHK. The protocol: as §5, §3, §6, §7
For test [11], the system named is SPRR1A. Kind of test: mRNA expression in normal human keratinocytes (real-time PCR), SPRR1A. Particulars: 30 μM, 72 hours, NHK. The protocol:
as §5, §3, §6, §7

The test system of test [12] is Padi1. The experiment in a line: mRNA expression in normal human keratinocytes (real-time PCR), Padi1. Particulars: 30 μM, 72 hours, NHK, FIG. 2. The protocol: FIG. 2 represents the relative quantity of Padi1 mRNA produced by keratinocytes treated for 72 hours with 30 μM sucrose octasulfate of magnesium (SOS-Mg), 30 μM sucrose octasulfate of sodium (SOS-Na) or 30 μM sucrose octasulfate of magnesium (SOS-Mg) in relation to the negative control.
as §5, §3, §6, §8

Take “EGF: epithelial growth factor (EGF), positive control of the migration test”: the “AVG IF (Intensity of Fluorescence, proportional to the quantity of cells having migrated)” value (“AVG IF” for short) in [1] (EGF 33 ng, positive control, HaCaT) was 16138 ± 1548. Moreover, the “% activity/control” value in [1] (EGF 33 ng, positive control) was 320*** %. The “keratinocyte migration (result in words)” value in [1] (EGF at 33 ng/ml, positive control, HaCaT) is “induced keratinocyte migration (and proliferation) in a very large and significant manner”.
For `[Ca+2].[Cl-].[Cl-]` [CaCl2], the “Relative quantities (RQ) of mRNA expression, UGCG” value is listed as 3.1 in [2] and “induced” in [2] (listed as Calcium). The results for the “Relative quantities (RQ) of mRNA expression, DEFB103A” value in test [3] and in test [3] (listed as Calcium) were 18.7 and “induced”, respectively. The “Relative quantities (RQ) of mRNA expression, RNASE7” value is recorded as 4.5 in [4] and “induced” in [4] (listed as Calcium). Besides, the “Relative quantities (RQ) of mRNA expression, CDSN” value in test [5] is given as 1.3.
In the case of `O=S(=O)([O-])OC[C@H]1O[C@@](COS(=O)(=O)[O-])(O[C@H]2O[C@H](COS(=O)(=O)[O-])[C@@H](OS(=O)(=O)[O-])[C@H](OS(=O)(=O)[O-])[C@H]2OS(=O)(=O)[O-])[C@@H](OS(=O)(=O)[O-])[C@@H]1OS(=O)(=O)[O-].[K+].[K+].[K+].[K+].[K+].[K+].[K+].[K+]` [SOS-K, sucrose octasulfate of potassium], in [1] (10 μM, HaCaT), the “AVG IF” value is given as 5001 ± 835 and the “keratinocyte migration (result in words)” value is “do not induce keratinocyte migration”. Besides, the “% activity/control” value in test [1] (10 μM) came to 99%.
For `O=S(=O)([O-])OC[C@H]1O[C@@](COS(=O)(=O)[O-])(O[C@H]2O[C@H](COS(=O)(=O)[O-])[C@@H](OS(=O)(=O)[O-])[C@H](OS(=O)(=O)[O-])[C@H]2OS(=O)(=O)[O-])[C@@H](OS(=O)(=O)[O-])[C@@H]1OS(=O)(=O)[O-].[Na+].[Na+].[Na+].[Na+].[Na+].[Na+].[Na+].[Na+]` [SOS-Na, sucrose octasulfate of sodium], in test [1] (10 μM, HaCaT), the “AVG IF” value was 4988 ± 965 and the “keratinocyte migration (result in words)” value is reported as “do not induce keratinocyte migration”. Also, in test [1] (10 μM), the “% activity/control” value was determined as 99%.
Regarding “sucrose octasulfate of magnesium [SOS-Mg]”, the “expression of IVL mRNA” value in test [6] was “induced”. Besides, the “expression of FLG mRNA” value in test [7] was “induced”. For the same molecule, the “expression of LOR (loricrin) mRNA” value in test [8] was “induced to a greater extent”. For the same molecule, in test [9], the “expression of hBD2 (DEFB4) mRNA” value was “induced to a greater extent”. For the same molecule, in [1] (10 μM, HaCaT), the “AVG IF” value was 7084 ± 662; the “keratinocyte migration (result in words)” value was “induced keratinocyte migration in a statistically significant manner”; the “migration relative to that induced by SOS-Na and SOS-K” value amounted to 1.4 times. Besides, in test [1] (10 μM), the “% activity/control” value is 140* %. Also, the “expression of SPRR1B mRNA” value in test [10] is reported as “induced”. In addition, the “expression of SPRR1A mRNA” value in test [11] is “induced”. Besides, the “expression of Padi1 mRNA” value in [12] is “induced to a greater extent”.
